The nature of data set [1]: DNP enhanced 13C-CPMAS NMR experiments (1H polarization enhancement by microwave irradiation). To be noted: 5 mM TOTAPOL, 2 M 13C-urea in d6-DMSO/D2O/H2O, 90 K, 5 T.
Description: Solutions for the DNP/NMR experiments—2 M ^13C-urea or 0.15 M U—^13C—^15N-proline—were prepared in d6-DMSO/D2O/H2O (60:34:6 w/w) or d8-glycerol/D2O/H2O (60:32:8 w/w), and doped with 5 mM TOTAPOL (10 mM electron spins). The reduced ^1H concentration was required to optimize the signal enhancements. DNP experiments using TOTAPOL as a polarizing agent were performed on a custom designed DNP/NMR spectrometer and triple-resonance (e^−, ^1H and ^13C/^15N) cryogenic (90 K) MAS probe^31 operating at 5 T (140 GHz EPR and 211 MHz ^1H NMR). The enhanced ^1H polarization developed by the microwave irradiation was detected indirectly via observation of the cross-polarized (CP) ^13C signals. The 140 GHz microwaves were generated by a gyrotron, a vacuum electron device capable of producing high power (>10 W) millimeter waves^26. In certain embodiments, sapphire, rather than zirconia, rotors are preferred for the DNP experiments since they transmit microwaves with ˜30% less attenuation. […]
The ^1H polarization is initially saturated by a series of 90° pulses followed by a delay of 3 T2. […] Note that the error for the enhancement factor is determined primarily by the uncertainty in measuring the intensity of the un-enhanced NMR signal.
Data set [2] can be described thus: Solubility in aqueous media. It is filed as physicochemical. The source says:
(§1) In contrast, BT2E is insoluble in all of these media.

Data set [3] is described as follows: Stability in glycerol/water. It is filed as physicochemical. To be noted: glycerol/water (6:4 w/w) at −10 °C for months.
Description: as §1

Regarding “1-(2,2,6,6-tetramethyl-1-oxy-4-piperidinyl)oxy-3-(2,2,6,6-tetramethyl-1-oxy-4-piperidinyl)amino-propan-2-ol [TOTAPOL]”, the “time constant for growth of the enhanced signal (microwaves on)” value in data set [1] is given as ~5.5 s. In addition, the “solubility in 200 mM salt” value in data set [2] (200 mM salt, solvent conditions common for protein samples) is “soluble in 200 mM salt”. In addition, the solubility in water entry in data set [2] (water) was “soluble in water”. Moreover, the stability in glycerol/water result in data set [3] was “stable”.

For the origin of these results see patent US7985594B2, “Biradical polarizing agents for dynamic nuclear polarization” (Massachusetts Institute of Technology, priority 2006, dated 2011).
